Test results reported in ChEMBL document CHEMBL4411303, “Synthesis of tetrazole derivatives bearing pyrrolidine scaffold and evaluation of their antifungal activity against Candida albicans” (Eur J Med Chem, 2019).

Key:
Type in all cases: functional
Candida albicans [1] = experiment: Antifungal activity against Candida albicans ATCC 90028 assessed as planktonic growth inhibition at 43.49 uM after 48 hrs by M27-A3 protocol based method relative to control; settings: ATCC 90028, 48 h, read-out: GI
Candida albicans [2] = experiment: Antifungal activity against Candida albicans ATCC 90028 assessed as planktonic growth inhibition at 0.34 uM after 48 hrs by M27-A3 protocol based method relative to control; settings: ATCC 90028, 48 h, read-out: GI
Candida albicans [3] = experiment: Antifungal activity against Candida albicans ATCC 90028 assessed as planktonic growth inhibition at 0.68 uM after 48 hrs by M27-A3 protocol based method relative to control; settings: ATCC 90028, 48 h, read-out: GI
Candida albicans [4] = experiment: Antifungal activity against Candida albicans ATCC 90028 assessed as planktonic growth inhibition at 1.36 uM after 48 hrs by M27-A3 protocol based method relative to control; settings: ATCC 90028, 48 h, read-out: GI
Candida albicans [5] = experiment: Antifungal activity against Candida albicans ATCC 90028 assessed as planktonic growth inhibition at 10.87 uM after 48 hrs by M27-A3 protocol based method relative to control; settings: ATCC 90028, 48 h, read-out: GI
Candida albicans [6] = experiment: Antifungal activity against Candida albicans ATCC 90028 assessed as planktonic growth inhibition at 21.75 uM after 48 hrs by M27-A3 protocol based method relative to control; settings: ATCC 90028, 48 h, read-out: GI
Candida albicans [7] = experiment: Antifungal activity against Candida albicans ATCC 90028 assessed as planktonic growth inhibition at 5.44 uM after 48 hrs by M27-A3 protocol based method relative to control; settings: ATCC 90028, 48 h, read-out: GI
Candida albicans [8] = experiment: Antifungal activity against Candida albicans ATCC 90028 assessed as planktonic growth inhibition at 0.17 uM after 48 hrs by M27-A3 protocol based method relative to control; settings: ATCC 90028, 48 h, read-out: GI
Candida albicans [9] = experiment: Antifungal activity against Candida albicans ATCC 90028 assessed as planktonic growth inhibition at 2.72 uM after 48 hrs by M27-A3 protocol based method relative to control; settings: ATCC 90028, 48 h, read-out: GI
Candida albicans [10] = experiment: Antifungal activity against Candida albicans ATCC 90028 assessed as planktonic growth inhibition at 0.08 uM after 48 hrs by M27-A3 protocol based method relative to control; settings: ATCC 90028, 48 h, read-out: GI
Candida albicans [11] = experiment: Fungicidal activity against Candida albicans ATCC 90028 assessed as log reduction in fungal load incubated for 48 hrs followed by replating on sabouraud dextrose agar plate and measured after 48 hrs
Candida albicans [12] = experiment: Antifungal activity against Candida albicans ATCC 90028 assessed as planktonic growth inhibition at 10.37 uM after 48 hrs by M27-A3 protocol based method relative to control; settings: ATCC 90028, 48 h, read-out: GI
Candida albicans [13] = experiment: Antifungal activity against Candida albicans ATCC 90028 assessed as planktonic growth inhibition at 5.18 uM after 48 hrs by M27-A3 protocol based method relative to control; settings: ATCC 90028, 48 h, read-out: GI
Candida albicans [14] = experiment: Antifungal activity against Candida albicans ATCC 90028 assessed as planktonic growth inhibition at 1.3 uM after 48 hrs by M27-A3 protocol based method relative to control; settings: ATCC 90028, 48 h, read-out: GI
Candida albicans [15] = experiment: Antifungal activity against Candida albicans ATCC 90028 assessed as planktonic growth inhibition at 20.73 uM after 48 hrs by M27-A3 protocol based method relative to control; settings: ATCC 90028, 48 h, read-out: GI
Candida albicans [16] = experiment: Antifungal activity against Candida albicans ATCC 90028 assessed as planktonic growth inhibition at 2.59 uM after 48 hrs by M27-A3 protocol based method relative to control; settings: ATCC 90028, 48 h, read-out: GI
Candida albicans [17] = experiment: Antifungal activity against Candida albicans ATCC 90028 assessed as planktonic growth inhibition at 0.32 uM after 48 hrs by M27-A3 protocol based method relative to control; settings: ATCC 90028, 48 h, read-out: GI
Candida albicans [18] = experiment: Antifungal activity against Candida albicans ATCC 90028 assessed as planktonic growth inhibition at 0.16 uM after 48 hrs by M27-A3 protocol based method relative to control; settings: ATCC 90028, 48 h, read-out: GI
Candida albicans [19] = experiment: Antifungal activity against Candida albicans ATCC 90028 assessed as planktonic growth inhibition at 41.47 uM after 48 hrs by M27-A3 protocol based method relative to control; settings: ATCC 90028, 48 h, read-out: GI
Candida albicans [20] = experiment: Antifungal activity against Candida albicans ATCC 90028 assessed as planktonic growth inhibition at 0.65 uM after 48 hrs by M27-A3 protocol based method relative to control; settings: ATCC 90028, 48 h, read-out: GI

Row | SMILES | inhibition of growth at 43.49 µM (Candida albicans [1]) | inhibition of growth at 0.34 µM (Candida albicans [2]) | inhibition of growth at 0.68 µM (Candida albicans [3]) | inhibition of growth at 1.36 µM (Candida albicans [4]) | inhibition of growth at 10.87 µM (Candida albicans [5]) | inhibition of growth at 21.75 µM (Candida albicans [6]) | inhibition of growth at 5.44 µM (Candida albicans [7]) | inhibition of growth at 0.17 µM (Candida albicans [8]) | inhibition of growth at 2.72 µM (Candida albicans [9]) | inhibition of growth at 0.08 µM (Candida albicans [10]) | log(activity) (Candida albicans [11]) | inhibition of growth at 10.37 µM (Candida albicans [12]) | inhibition of growth at 5.18 µM (Candida albicans [13]) | inhibition of growth at 1.3 µM (Candida albicans [14]) | inhibition of growth at 20.73 µM (Candida albicans [15]) | inhibition of growth at 2.59 µM (Candida albicans [16]) | inhibition of growth at 0.32 µM (Candida albicans [17]) | inhibition of growth at 0.16 µM (Candida albicans [18]) | inhibition of growth at 41.47 µM (Candida albicans [19]) | inhibition of growth at 0.65 µM (Candida albicans [20])
1 | Clc1ccc(-c2nnn(CCCN3CCCC3c3ccccc3)n2)cc1 (centres undefined) | 99.1% | 99.3% | 99.3% | 99.4% | 99.2% | 99.2% | 99.3% | 99.3% | 99.4% | 99.3% | -0.5 |  |  |  |  |  |  |  |  | 
2 | Clc1ccc(C2CCCN2CCCn2nnc(-c3ccccc3)n2)cc1 (centres undefined) | 99.6% | 99.4% | 99.4% | 99.4% | 99.2% | 99.4% | 99.3% | 99.3% | 99.2% | 99.4% | -1.4 |  |  |  |  |  |  |  |  | 
3 | Clc1ccccc1-c1nnn(CCCN2CCCC2c2ccccc2)n1 (centres undefined) | 99.5% | 99% | 99% | 99.1% | 99.2% | 99.4% | 99.1% | 98.9% | 99.1% | 98.8% | -0.3 |  |  |  |  |  |  |  |  | 
4 | Fc1ccc(C2CCCN2CCCn2nnc(-c3ccccc3Cl)n2)cc1 (centres undefined) |  |  |  |  |  |  |  |  |  | 98.6% | -0.4 | 99.4% | 99.3% | 99.2% | 99.5% | 99.3% | 98.9% | 98.7% | 99.6% | 99%
